Earlier results on four molecules are cited in EP1033131B1, “Composition in the form of a drink having a delayed alcohol aversion effect” (Semenov, Sergei Petrovich, priority 1997, dated 1999).

The subject of one series is Ratten. Particulars: in vivo.
The conditions of series [1]: for Anregungseffekt der Alkoholwirkung / alkoholische Anregung: result in words.
The conditions of series [2]: in vivo.
A further series deals with Cholinesterase. The conditions noted are these: factor of reduction.

On to 2,6-Diethylester der Ascorbinsäure, for which the “Verlaufsschwere des Alkoholentzugssyndroms” value in the series with Ratten is reported as “vermindert”. Besides, the “Stärke der alkoholischen Anregung, vermindert mit dem Quotienten” value in series [1] (factor of reduction) is recorded as 4. Moreover, in series [1] (in vivo), the “Eintreten der Anregungsphase” value is on record as “verlangsamt”. The “Dauer der alkoholischen Anregung, vermindert um” value in series [1] (percent reduction) is 25%. In addition, in series [2], the “Dauer des narkotischen Effekts des Alkohols” value is listed as “vermindert”.

In the case of 3,6-Diethylester der Ascorbinsäure, the “Dauer des narkotischen Effekts des Alkohols” value in series [2] is listed as “vermindert”.

Take `CCOC(=O)C(O)=C(O)C(O)C(O)CO` (centres unmarked) [1-Ethylester der Ascorbinsäure]: the “Zeitraum der Anregung, verkürzt mit dem Quotienten” value in series [1] (factor of shortening) was 2. Further, in series [1], the “Anregungseffekt der Alkoholwirkung / alkoholische Anregung” value is listed as “vermindern”. In the series on Cholinesterase, the “Aktivität der Cholinesterase, vermindert mit dem Quotienten” value was more than 2.

With `CCOC1=C(OCC)C(C(O)CO)OC1=O` (centres unmarked) [2,3-Diethylester der Ascorbinsäure], the “Verlaufsschwere des Alkoholentzugssyndroms” value in the series on Ratten was “vermindert”. For the same molecule, the “Anregungseffekt der Alkoholwirkung / alkoholische Anregung” value in series [1] is given as “beeinflusst”.
